Measured values taken from patent US20020128231A1 (priority 2000, published 2002).

Key:
P-glycoprotein = P-glycoprotein (Homo sapiens, UniProt P08183); assay: Rhodamine 123 transport assay across HCT-8 cell monolayers; settings: compound 10 μM, Rh123 15 μM, HCT-8 cells; for inhibition at 10 μM: human, HCT-8 cell monolayers in Transwell dishes, probe Rhodamine 123 (15 μM), % Inhibition of R123 Transport
Protocol: The human ileocecal adenocarcinoma cell line HCT-8 was grown in RPMI-1640 medium supplemented with 10% horse serum, 1 mM sodium pyruvate and 0.01 mg/ml gentamicin. All cells were maintained in a humidified atmosphere with 5% CO2 at 37° C.
Rhodamine 123 transport was examined as previously described (Hunter J. et al., Simmons, Br. J. Cancer, 64: 437444 (1991); Kim A. E. et al., J. Pharm. Exp. Ther., 286: 1439-1445 (1998)) using HCT-8 cells. Particularly, cells were grown in 6 well Corning Transwell dishes until a tight monolayer was formed. Rh123 was added at a final concentration of 15 μM to the basal or apical compartments and 200 μl samples were taken at the indicated times from the opposite chamber. Fluorescence of Rh123 in the media samples was measured using a fluorescence plate reader with an excitation wavelength of 485 nm and an emission wavelength of 530 nm.

[1] = test system: MDR1-expressing NIH 3T3 cells; assay: Cytotoxicity (MTT) assay: modulation of drug cytotoxicity in multidrug resistant cells; settings: for Modulation of Drug Resistance (percentage increase in doxorubicin cytotoxicity in the presence of the compounds versus in their absence): compound 5 μM, 50 nM doxorubicin, 72 hours, MTT
Protocol: Cytotoxicity assays were performed with many of the compounds of Formula I to verify their usefulness as inhibitors of P-gp.
Parental NIH3T3 Swiss mouse embryo cell line was obtained from American Type Culture Collection and was grown in Dulbecco's Modified Eagles Medium supplemented with 4.5 g/L glucose, 10% fetal bovine serum, 2 mM L-glutamine, and 0.01 mg/ml gentamicin. […] All cells were maintained in a humidified atmosphere with 5% CO2 at 37° C.
Parental and MDR1-expressing NIH 3T3 cells were plated at a density of 2.5-3.0×10^3 cells/well in 96-well microtiter plates and were exposed to 50 nM of doxoriubicin, 7.5 nM vinblastine, 75 nM colchicine or 300 nM paclitaxel for 72 hours. Cell viability was determined with the colorimetric MTT (3-(4,5-dimethylthiazol-2-yl)-2,5-diphenyl tetrazolium) assay as previously described (Mosmann T., J. Immunol. Methods, 65: 55-63 (1983); Hansen M. B. et al., J. Immunol. Methods, 119: 203-210 (1989)) and the absorbance was measured at 570 nm.

P-glycoprotein, sequence (P08183 whole entry): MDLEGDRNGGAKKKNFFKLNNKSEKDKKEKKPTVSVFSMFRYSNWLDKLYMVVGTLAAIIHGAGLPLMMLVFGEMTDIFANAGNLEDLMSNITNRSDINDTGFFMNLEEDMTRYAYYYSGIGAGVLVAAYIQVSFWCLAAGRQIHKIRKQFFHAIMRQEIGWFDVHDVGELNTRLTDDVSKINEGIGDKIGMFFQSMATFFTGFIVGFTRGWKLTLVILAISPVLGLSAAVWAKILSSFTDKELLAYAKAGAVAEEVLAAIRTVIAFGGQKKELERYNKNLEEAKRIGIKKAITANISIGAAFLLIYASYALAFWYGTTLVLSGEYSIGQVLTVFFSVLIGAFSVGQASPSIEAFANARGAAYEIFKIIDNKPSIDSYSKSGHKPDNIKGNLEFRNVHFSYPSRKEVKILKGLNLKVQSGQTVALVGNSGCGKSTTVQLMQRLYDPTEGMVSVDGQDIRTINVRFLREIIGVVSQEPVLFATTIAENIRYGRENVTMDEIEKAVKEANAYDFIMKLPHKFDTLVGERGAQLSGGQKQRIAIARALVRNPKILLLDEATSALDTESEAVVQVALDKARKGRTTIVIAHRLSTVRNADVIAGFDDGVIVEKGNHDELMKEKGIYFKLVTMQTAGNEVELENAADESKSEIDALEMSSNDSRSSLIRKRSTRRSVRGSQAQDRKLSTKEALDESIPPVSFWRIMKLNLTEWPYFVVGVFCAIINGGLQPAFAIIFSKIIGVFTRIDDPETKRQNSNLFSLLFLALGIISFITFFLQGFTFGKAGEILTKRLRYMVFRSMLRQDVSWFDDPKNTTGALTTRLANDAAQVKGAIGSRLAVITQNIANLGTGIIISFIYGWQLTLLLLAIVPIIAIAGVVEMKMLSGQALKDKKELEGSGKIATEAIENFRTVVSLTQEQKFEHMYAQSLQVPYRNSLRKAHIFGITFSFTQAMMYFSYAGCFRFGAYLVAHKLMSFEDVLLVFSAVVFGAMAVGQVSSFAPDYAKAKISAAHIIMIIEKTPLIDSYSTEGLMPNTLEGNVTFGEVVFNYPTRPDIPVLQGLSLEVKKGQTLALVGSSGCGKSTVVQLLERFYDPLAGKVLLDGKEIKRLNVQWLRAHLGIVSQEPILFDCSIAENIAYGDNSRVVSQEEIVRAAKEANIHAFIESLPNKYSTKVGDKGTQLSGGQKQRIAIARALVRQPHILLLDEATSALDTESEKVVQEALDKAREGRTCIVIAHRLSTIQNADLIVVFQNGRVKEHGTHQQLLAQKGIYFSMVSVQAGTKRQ

| SMILES | inhibition at 10 μM (P-glycoprotein) [%] | % Inhibition of R123 Transport (P-glycoprotein) [%] | Modulation of Drug Resistance (percentage increase in doxorubicin cytotoxicity in the presence of the compounds versus in their absence) [1] [%] | dose responsive sensitization of multidrug resistant cells to doxorubicin (FIG. 5) ([1]; doxorubicin 0-750 nM, compound 50-1000 nM) | dose response inhibition of P-glycoprotein in the presence of vinblastine (FIG. 6) ([1]; vinblastine 0-100 nM, compound 50-1000 nM) |
| --- | --- | --- | --- | --- | --- |
| COc1ccc(C2c3cc(OC)c(OC)cc3C(CC(=O)N3CCN(c4ccccc4)CC3)C2C(=O)N2CCN(c3ccccc3)CC2)cc1OC (centres unmarked) [AV-161, 2-[3-(3,4-dimethoxyphenyl)-5,6-dimethoxy-2-(4-phenylpiperazin-1-carbonyl)-indan-1-yl]-1-(4-phenylpiperazin-1-yl)-ethanone] | 64.1 |  | 75.91 |  |  |
| COCC1C(CCN2CCN(c3ccccc3)CC2)c2cc(OC)c(OC)cc2C1c1ccc(OC)c(OC)c1 (centres unmarked) [AV-198, 1-{-2-[3-(3,4-dimethoxyphenyl)-5,6-dimethoxy-2-methoxymethyl-indan-1-yl]-ethyl}-4-phenylpiperazine] | 84.7 |  | 58.65 |  |  |
| CCCOc1ccc(C2c3cc(OCCC)c(OC)cc3C(CC(=O)N3CCN(c4ccccc4OCC)CC3)C2C(=O)N2CCN(c3ccccc3OCC)CC2)cc1OC (single isomer, unassigned) [AV-239-1] |  | 90.10 | 55.3 |  |  |
| COCC1C(CCN2CCN(c3ccccc3OC)CC2)c2cc(OC)c(OC)cc2C1c1ccc(OC)c(OC)c1 (centres unmarked) [AV-202, 1{-2-[3-(3,4-dimethoxyphenyl)-5,6-dimethoxy-2-methoxymethyl-indan-1-yl]-ethyl}-4-(2-methoxyphenyl)-piperazine] | 88.4 |  | 59.68 | dose responsive sensitization | dose response data inhibition of P-glycoprotein |

Now from value to compound, other results behind:

| inhibition at 10 μM (P-glycoprotein) [%] | % Inhibition of R123 Transport (P-glycoprotein) [%] | SMILES | Modulation of Drug Resistance (percentage increase in doxorubicin cytotoxicity in the presence of the compounds versus in their absence) [1] [%] | dose responsive sensitization of multidrug resistant cells to doxorubicin (FIG. 5) ([1]; doxorubicin 0-750 nM, compound 50-1000 nM) | dose response inhibition of P-glycoprotein in the presence of vinblastine (FIG. 6) ([1]; vinblastine 0-100 nM, compound 50-1000 nM) |
| --- | --- | --- | --- | --- | --- |
| 53.7 |  | CCOc1ccccc1N1CCN(CCC2c3cc(OC)c(OC)cc3C(c3ccc(OC)c(OC)c3)C2CN2CCN(c3ccccc3OCC)CC2)CC1 (centres unmarked) [AV-184, 2-{3-(3,4-dimethoxyphenyl)-5,6-dimethoxy-2-[4-(2-ethoxyphenyl)-piperazin-1-yl-methyl]-indan-1-yl}-1-[4-(2-ethoxyphenyl)-piperazin-1-yl]-ethane] | 50.58 |  |  |
| 2.7 |  | CCN1CCN(C(=O)CC2c3cc(OC)c(OC)cc3C(c3ccc(OC)c(OC)c3)C2C(=O)N2CCN(CC)CC2)CC1 (centres unmarked) [AV-187, 2-[3-(3,4-dimethoxyphenyl)-5,6-dimethoxy-2-(4-ethylpiperazine-1-carbonyl)-indan-1-yl]-1-(4-ethylpiperazin-1-yl)-ethanone] | 23.50 |  |  |
